Test results as given in patent US7951814B2, “Quinazolinedione derivatives as TRPA1 modulators” (Glenmark Pharmaceuticals, S.A., priority 2008, dated 2011).

Molecular target: T1, Human TRPA1 expressing CHO cells (Homo sapiens, UniProt O75762)
T1 construct: expressed in transfected cells; host or cells: CHO cells (under G-418 selection)
Assay: 45Calcium uptake assay: inhibition of AITC induced cellular uptake of radioactive calcium
Assay type: cell-based
Settings: AITC 30 μM; for inhibition at 1 µM: 1.0 μM test compound, read-out: Percentage inhibition at 1.0 μM; for inhibition at 1 µM / inhibition at 10 µM / IC50: human TRPA1 CHO cells; for inhibition at 10 µM: 10.0 μM test compound, read-out: Percentage inhibition at 10.0 μM; for IC50: read-out: IC50 value (range)
Method: The illustrative examples of the present invention are screened for TRPA1 activity according to a modified procedure described in (a) Tóth, A. et al. Life Sciences (2003), 73, 487-498. ([…]. et al. Proc. Natl. Acad. Sci. U.S.A., (2007), 104, 13525-13530. The screening of the compounds can be carried out by other methods and procedures known to persons skilled in the art. Screening for TRPA1 Antagonist Using the ^45Calcium Uptake Assay The inhibition of TRPA1 receptor activation was measured as inhibition of allyl isothiocyanate (AITC) induced cellular uptake of radioactive calcium. […] Final concentration of DMSO in the reaction was 0.5% (v/v). […] Cells were seeded 24 h prior to the assay in 96 well plates so as to get 50,000 cells per well on the day of experiment. Cells were treated with test compounds for 10 min followed by addition of AITC at a final concentration of 30 μM and 5 μCi/ml ^45Ca^+2 for 3 min. […] Radioactivity in the lysate was measured in Packard Top count after addition of liquid scintillant. Concentration response curves were plotted as a % of maximal response obtained in the absence of test antagonist. IC50 value was calculated from concentration response curve by nonlinear regression analysis using GraphPad PRISM software.

T1 sequence (O75762 whole entry): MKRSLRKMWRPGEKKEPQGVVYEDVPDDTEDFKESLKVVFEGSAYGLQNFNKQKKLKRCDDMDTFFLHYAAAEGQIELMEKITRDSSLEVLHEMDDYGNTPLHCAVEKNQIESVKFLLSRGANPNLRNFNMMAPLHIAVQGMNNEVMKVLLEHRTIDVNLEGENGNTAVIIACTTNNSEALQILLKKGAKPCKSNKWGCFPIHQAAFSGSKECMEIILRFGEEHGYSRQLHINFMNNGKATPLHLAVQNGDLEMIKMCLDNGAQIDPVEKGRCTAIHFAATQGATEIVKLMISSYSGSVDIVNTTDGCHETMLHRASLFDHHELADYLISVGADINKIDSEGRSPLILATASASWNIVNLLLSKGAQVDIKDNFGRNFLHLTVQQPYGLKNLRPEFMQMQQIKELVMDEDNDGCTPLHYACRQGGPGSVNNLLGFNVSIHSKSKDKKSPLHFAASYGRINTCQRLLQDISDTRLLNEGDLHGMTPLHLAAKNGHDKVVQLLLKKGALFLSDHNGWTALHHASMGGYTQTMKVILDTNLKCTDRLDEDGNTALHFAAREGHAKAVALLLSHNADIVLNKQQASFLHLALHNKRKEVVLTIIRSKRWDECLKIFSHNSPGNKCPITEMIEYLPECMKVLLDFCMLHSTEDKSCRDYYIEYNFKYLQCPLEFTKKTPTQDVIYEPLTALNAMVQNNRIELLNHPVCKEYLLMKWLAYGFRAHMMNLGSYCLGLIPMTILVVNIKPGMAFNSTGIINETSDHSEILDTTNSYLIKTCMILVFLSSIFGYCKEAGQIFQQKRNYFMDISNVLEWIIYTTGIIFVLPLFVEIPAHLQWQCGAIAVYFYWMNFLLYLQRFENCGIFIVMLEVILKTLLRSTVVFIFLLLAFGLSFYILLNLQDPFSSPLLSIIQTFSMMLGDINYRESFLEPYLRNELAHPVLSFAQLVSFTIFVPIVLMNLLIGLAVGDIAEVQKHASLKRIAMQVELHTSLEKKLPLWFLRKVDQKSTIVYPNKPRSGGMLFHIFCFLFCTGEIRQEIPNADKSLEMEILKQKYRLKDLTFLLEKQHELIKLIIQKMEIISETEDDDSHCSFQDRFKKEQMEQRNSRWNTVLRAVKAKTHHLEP

SMILES | inhibition at 1 µM [%] | inhibition at 10 µM [%] | IC50 [nM] | inhibition at 3 µM (CHO, 3 μM test compound (printed in the 10.0 μM column), read-out: Percentage inhibition (3 μM)) [%]
Cn1c(=O)c2c(CC(=O)Nc3nc(-c4ccc(Cl)cc4F)cs3)cccc2n(C)c1=O [Example 51, N1-[4-(4-Chloro-2-fluorophenyl)-1,3-thiazol-2-yl]-2-(1,3-dimethyl-2,4-dioxo-1,2,3,4-tetrahydro-5-quinazolinyl)acetamide] | 97.5 | 99.3 | > 100 | 
Cn1c(=O)n(CC2CC2)c(=O)c2c(CC(=O)Nc3nc(-c4ccc(C(C)(C)C)cc4)cs3)cccc21 [Example 27, N1-[4-(4-tert-Butylphenyl)-1,3-thiazol-2-yl]-2-(1-methyl-3-cyclopropylmethyl-2,4-dioxo-1,2,3,4-tetrahydro-5-quinazolinyl)acetamide] | 17.2 | 29.6 |  | 
Cn1c(=O)c2c(CC(=O)Nc3nc(-c4ccc(F)c(C(F)(F)F)c4F)cs3)cccc2n(C)c1=O [Example 67, N1-{4-[2,4-Difluoro-3-trifluoromethylphenyl]-1,3-thiazol-2-yl}-2-(1,3-dimethyl-2,4-dioxo-1,2,3,4-tetrahydro-5-quinazolinyl)acetamide] | 97.8 |  | < 50 | 99.5
Cn1c(=O)c2c(CC(=O)Nc3nc(-c4ccc(Br)cc4)cs3)cccc2n(C)c1=O [Example 12] | 98.7 | 99.2 | 50.1 to 100 | 
Cc1cc2nc(NC(=O)Cc3cccc4c3c(=O)n(C)c(=O)n4C)sc2cc1C [Example 77, N1-(5,6-Dimethylbenzo[d][1,3]thiazol-2-yl)-2-(1,3-dimethyl-2,4-dioxo-1,2,3,4-tetrahydro-5-quinazolinyl)acetamide] | 49.1 | 95.5 |  | 
Cn1c(=O)c2c(CC(=O)Nc3nc(-c4ccc(F)c(C(F)(F)F)c4)cs3)cccc2n(C)c1=O [Example 38, N1-[4-(4-Fluoro-3-trifluoromethylphenyl)-1,3-thiazol-2-yl]-2-(1,3-dimethyl-2,4-dioxo-1,2,3,4-tetrahydro-5-quinazolinyl)acetamide] | 98.5 | 98.7 | < 50 | 
Cn1c(=O)c2c(CC(=O)Nc3nc(-c4cn(C)c5ccccc45)cs3)cccc2n(C)c1=O [Example 74] | 96.3 | 97.7 | > 100 | 
Cn1c(=O)c2c(CC(=O)Nc3ccn(-c4ccc(Cl)cc4)n3)cccc2n(C)c1=O [Example 80, N1-[1-(4-Chlorophenyl)-1H,3-pyrazolyl]-2-(1,3-dimethyl-2,4-dioxo-1,2,3,4-tetrahydro-5-quinazolinyl)acetamide] | 97.2 | 99.7 | 50.1 to 100 | 
Cn1c(=O)c2c(CC(=O)Nc3ccc(-c4ccc(Cl)cc4)cn3)cccc2n(C)c1=O [Example 5, N1-[5-(4-chlorophenyl)-2-pyridyl]-2-(1,3-dimethyl-2,4-dioxo-1,2,3,4-tetrahydro-5-quinazolinyl)acetamide] | 52.2 | 71.5 |  | 
Cn1c(=O)c2c(CC(=O)Nc3nc(-c4ccc(F)cc4F)cs3)cccc2n(C)c1=O [Example 31, N1-[4-(2,4-Difluorophenyl)-1,3-thiazol-2-yl]-2-(1,3-dimethyl-2,4-dioxo-1,2,3,4-tetrahydro-5-quinazolinyl)acetamide] | 90.1 | 97.9 | < 50 | 
Cn1c(=O)c2c(CC(=O)Nc3nc(-c4ccc(OCC5CC5)c(F)c4)cs3)cccc2n(C)c1=O [Example 60, N1-[4-(4-Cyclopropylmethoxy-3-fluorophenyl)-1,3-thiazol-2yl]-2-(1,3-dimethyl-2,4-dioxo-1,2,3,4-tetrahydro-5-quinazolinyl)acetamide] | 1.31 | 41.3 |  | 
Cn1c(=O)c2c(CC(=O)Nc3nc(-c4ccc(OCC(F)(F)F)c(F)c4)cs3)cccc2n(C)c1=O [Example 59, N1-{4-[3-fluoro-4-(2,2,2-trifluoroethoxy)phenyl]-1,3-thiazol-2yl}-2-(1,3-dimethyl-2,4-dioxo-1,2,3,4-tetrahydro-5-quinazolinyl)acetamide] | 96.8 | 100 | < 50 | 
Cn1c(=O)c2c(CC(=O)Nc3nc(-c4cccc(OC(F)(F)F)c4)cs3)cccc2n(C)c1=O [Example 16, N1-[4-(3-Trifluoromethoxyphenyl)-1,3-thiazol-2-yl]-2-(1,3-dimethyl-2,4-dioxo-1,2,3,4-tetrahydro-5-quinazolinyl)acetamide] | 95.6 | 99.7 | < 50 | 
Cn1c(=O)c2c(CC(=O)Nc3cc(-c4ccc(Cl)cc4)n[nH]3)cccc2n(C)c1=O [Example 79, N1-[3-(4-Chlorophenyl)-1H,5-pyrazolyl]-2-(1,3-dimethyl-2,4-dioxo-1,2,3,4-tetrahydro-5-quinazolinyl)acetamide] | 3.81 | 8.12 |  | 
Cn1c(=O)c2c(CC(=O)Nc3nc(-c4ccc(C(F)(F)F)cc4)cs3)cccc2n(C)c1=O [Example 14, N1-[4-(4-Trifluromethylphenyl)-1,3-thiazol-2yl]-2-(1,3-dimethyl-2,4-dioxo-1,2,3,4-tetrahydro-5-quinazolinyl)acetamide] | 97.9 | 99.1 | < 50 | 
Cn1c(=O)c2c(CC(=O)Nc3nc(-c4cc(Cl)ccc4Cl)cs3)cccc2n(C)c1=O [Example 46, N1-[4-(2,5-Dichlorophenyl)-1,3-thiazol-2-yl]-2-(1,3-dimethyl-2,4-dioxo-1,2,3,4-tetrahydro-5-quinazolinyl)acetamide] | 84.3 | 87.9 | > 100 | 
Cc1cc(-c2csc(NC(=O)Cc3cccc4c3c(=O)n(C)c(=O)n4C)n2)ccc1Cl [Example 58, N1-[4-(4-Chloro-3-methylphenyl)-1,3-thiazol-2yl]-2-(1,3-dimethyl-2,4-dioxo-1,2,3,4-tetrahydro-5-quinazolinyl)acetamide] | 94.2 | 96.7 | > 100 | 
Cn1c(=O)c2c(CC(=O)Nc3nc(-c4ccc(F)cc4)cs3)cccc2n(C)c1=O [Example 9, N1-[4-(4-Fluorophenyl)-1,3-thiazol-2yl]-2-(1,3-dimethyl-2,4-dioxo-1,2,3,4-tetrahydro-5-quinazolinyl)acetamide] | 30.8 | 43.8 |  | 
COc1ccc(-c2csc(NC(=O)Cc3cccc4c3c(=O)n(C)c(=O)n4C)n2)cc1 [Example 17, N1-[4-(4-Methoxyphenyl)-1,3-thiazol-2-yl]-2-(1,3-dimethyl-2,4-dioxo-1,2,3,4-tetrahydro-5-quinazolinyl)acetamide] | 30 | 75.9 |  | 
Cn1c(=O)c2c(CC(=O)Nc3nc(-c4cccc(Cl)c4)cs3)cccc2n(C)c1=O [Example 11, N1-[4-(3-Chlorophenyl)-1,3-thiazol-2yl]-2-(1,3-dimethyl-2,4-dioxo-1,2,3,4-tetrahydro-5-quinazolinyl)acetamide] | 95.5 | 99.1 | > 100 | 
Cn1c(=O)c2c(CC(=O)Nc3nc(-c4c(F)cccc4F)cs3)cccc2n(C)c1=O [Example 33, N1-[4-(2,6-Difluorophenyl)-1,3-thiazol-2-yl]-2-(1,3-dimethyl-2,4-dioxo-1,2,3,4-tetrahydro-5-quinazolinyl)acetamide] | 50.4 | 79.8 |  | 
Cn1c(=O)c2c(CC(=O)Nc3nc(-c4cc(C(F)(F)F)ccc4Cl)cs3)cccc2n(C)c1=O [Example 56, N1-[4-(2-Chloro-5-trifuoromethylphenyl)-1,3-thiazol-2-yl]-2-(1,3-dimethyl-2,4-dioxo-1,2,3,4-tetrahydro-5-quinazolinyl)propanamide] | 85 | 99.8 | > 100 | 
Cn1c(=O)c2c(CC(=O)Nc3cccc(-c4ccc(Cl)cc4)n3)cccc2n(C)c1=O [Example 4, N1-[6-(4-chlorophenyl)-2-pyridyl]-2-(1,3-dimethyl-2,4-dioxo-1,2,3,4-tetrahydro-5-quinazolinyl)acetamide] | 60.7 | 95.2 |  | 
Cn1c(=O)c2c(CC(=O)Nc3nnc(-c4ccc(Br)cc4)s3)cccc2n(C)c1=O [Example 83, N1-[5-(4-Bromophenyl)-1,3,4-thadiazol-2-yl]-2-(1,3-dimethyl-2,4-dioxo-1,2,3,4-tetrahydro-5-quinazolinyl)acetamide] | 5.49 | 3.46 |  | 
Cn1c(=O)c2c(CC(=O)Nc3nc(-c4ccc(Cl)c(Cl)c4)cs3)cccc2n(C)c1=O [Example 47, N1-[4-(3,4-Dichlorophenyl)-1,3-thiazol-2yl]-2-(1,3-dimethyl-2,4-dioxo-1,2,3,4-tetrahydro-5-quinazolinyl)acetamide] | 98.4 | 99.2 | 50.1 to 100 | 
